Patent US20240368151A1, “NOVEL ERGOLINES AND METHODS OF TREATING MOOD DISORDERS” (priority 2021, published 2024)

How the values were obtained:
[1] = tested on: Sprague Dawley rats; experiment: Forced swim test (FST) in rats; format: in vivo, rat; conditions: rat FST, 20 mg/kg SC at 23.5 h, 5 h and 1 h before test swim; average of 3 independent experiments
Experimental: Compound 1 induced antidepressant-like effects in the forced swim test (FST) in rats with a 23.5-h pre-treatment time (FIG. 2).
Animals. Male Sprague Dawley rats, aged 9-10 weeks, were used in this experiment. Animals were housed in groups of 2 under controlled temperature (22±3° C.) and relative humidity (30-70%) conditions, with 12-hour light/dark cycles, and with ad libitum food and water. This study was carried out in strict accordance with the requirements of the Committee for the Purpose of Control and Supervision of Experiments on Animals (CPCSEA), India. All efforts were made to minimize suffering.
Drugs and Drug Administration. Compound 1 was synthesized as described above. Desipramine HCl was commercially obtained. The test compound, saline vehicle, and the positive control desipramine were administered subcutaneously (SC), with doses calculated based on the freebase. Normal saline was used as the vehicle. All compounds were administered at a volume of 5 mL/kg. The test compound and vehicle were administered 0.5 h after the start of the training swim (Swim 1) and 23.5 h before the test swim (Swim 2). Desipramine was administered 3 times, at 23.5 h, 5 h, and 1 h before the test swim (Swim 2), each time at a dose of 20 mg/kg. Group size was n=10 per treatment.
Forced Swim Test (FST). […] Rats were handled for about 2 min daily for the 5 days prior to the beginning of the experimental procedure. On the first day of the experiment (i.e., Day 0), post randomization, training swim sessions (Swim 1) were conducted between 12:00 and 18:00 h with all animals by placing rats in individual glass cylinders (46 cm tall×20 cm in diameter) containing 23-25° C. water 30 cm deep for 15 minutes. At the conclusion of Swim 1, animals were dried with paper towels, placed in heated drying cages for 15 minutes, and then returned to their home cages. Animals were then administered the appropriate drug or vehicle treatment(s), as described above. For clarity, a compound administration time of 23.5 h before Swim 2 means 0.5 h after the start of Swim 1 and 0.25 h after the completion of Swim 1 (i.e., immediately after return to the home cage). On Day 1 (i.e., 24 h after start of Swim 1), animals performed the test swim (Swim 2) for a period of 5 min but otherwise under the same conditions as Swim 1. During all swim sessions, the water was changed between each animal.
Behavioral scoring was conducted by observers who were blind to the treatment groups. Animals were continuously observed during Swim 2 and the total time spent engaging in the following behaviors was recorded: immobile, swimming, and climbing. A rat was judged to be immobile when it remained floating in the water without struggling and was making only those movements necessary to keep its head above water. A rat was judged to be swimming when it made active swimming motions, more than necessary to merely maintain its head above water (e.g., moving around in the cylinder). A rat was judged to be climbing when it made active movements with its forepaws in and out of the water, usually directed against the walls.
Statistical Analysis. The data points shown represent the mean±standard error of the mean (SEM). Analysis was performed using GraphPad Prism 6. Comparisons between groups were performed using the one-way analysis of variance (ANOVA), followed by Dunnett's test for comparisons to vehicle.
Additional disclosed compounds were tested in the forced swim test (FST) in rats according to the procedure described in Example 35.

[2] = target: 5-HT1A receptor (Homo sapiens (Human), UniProt P08908); experiment: FLIPR Ca^2+ flux agonist assay at 5-HT1A; format: cell-based; conditions: CHO cells
Experimental: (§1) Functional Assays at 5-HT2A, 5-HT2B, and 5-HT1A. Agonist activity at 5-HT2A, 5-HT2B, and 5-HT1A receptors was determined using a FLIPR Ca^2+ flux assay at WuXi AppTec (Hong Kong) Limited according to their standard protocols. Briefly, stably transfected cells expressing the receptor of interest (HEK293 for 5-HT2A and 5-HT2B; CHO cells for 5-HT1A) were grown and plated in a 384 well plate and incubated at 37° C. and 5% CO2 overnight. A solution of 250 mM probenecid in 1 mL FLIPR assay buffer was prepared fresh. This was combined with a fluorescent dye (Fluo-4 Direct™) to make a final assay concentration of 2.5 mM. […] The fluorescent dye was then added to the assay plate along with assay buffer to a final volume of 40 μL. The cell plate was incubated for 50 min at 37° C. and 5% CO2 and placed into the FLIPR Tetra along with the compound plate. 10p L of references and compounds were then transferred from the compound plate into the cell plate and the fluorescent signal was read.

[3] = Metabolic stability in rat liver microsomes (RLM); format: in vitro ADME; conditions: both sexes, rat, pooled rat liver microsomes, pH 7.4, NADPH
[4] = target: 5-HT2B receptor (Homo sapiens (Human), UniProt P41595); experiment: FLIPR Ca^2+ flux agonist assay at 5-HT2B; format: cell-based; conditions: HEK293
Experimental: as §1

[5] = target: 5-HT1B receptor (Homo sapiens (Human), UniProt P28222); experiment: cAMP accumulation agonist assay at 5-HT1B; format: cell-based
Experimental: Functional Assay at 5-HT1B. Agonist activity at 5-HT1B was determined using a cAMP accumulation protocol at WuXi AppTec (Hong Kong) Limited according to their standard protocols. Briefly, stably transfected cells were plated in an OptiPlate-384 well plate, incubated at RT for 60 mins, and cAMP standard solution (800 nM, 10 μL) was added to the blank well. Then, 10 μL detection reagent was added to each well, the plate incubated for 60 mins at RT, and the plate read using EnVision.

[6] = target: 5-HT2A receptor (Homo sapiens (Human), UniProt P28223); format: cell-based; conditions: Ca^2+ flux, HEK293
Experimental: as §1

[7] = Metabolic stability in human liver microsomes (HLM); format: in vitro ADME; conditions: both sexes, human, pooled human liver microsomes, pH 7.4, NADPH
Description: HLM Stability. Pooled HLM from adult male and female donors (Corning 452117) were used.

[8] = Metabolic stability in mouse liver microsomes (MLM); format: in vitro ADME; conditions: mouse, pooled mouse liver microsomes, pH 7.4, MLM (CD-1), NADPH
Description: MLM Stability Pooled MLM from CD-1 mice (BIOIVT M00501) were used.

[9] = target: Alpha1A receptor (Homo sapiens (Human), UniProt P35348); experiment: FLIPR Ca^2+ flux agonist assay at Alpha1A; format: cell-based
Experimental: Disclosed compounds were tested for agonist activity at several adrenergic (Alpha1A and Alpha2A) and dopamine (D1 and D2) receptor subtypes using Ca^2+ flux functional assays, with the results summarized in Table 6. Selectivity for the 5-HT2A receptor over these other targets varied depending on the specific target and compound.
Functional Assays at Adrenergic and Dopamine Receptors. Agonist activity at Alpha1A, Alpha2A, D1, and D2 receptors was determined using a FLIPR Ca^2+ flux assay at WuXi AppTec (Hong Kong) Limited according to their standard protocols. Briefly, stably transfected cells expressing the receptor of interest were grown and plated in a 384 well plate and incubated at 37° C. and 5% CO2 overnight. A solution of 250 mM probenecid in 1 mL FLIPR assay buffer was prepared fresh. This was combined with a fluorescent dye (Fluo-4 Direct™) to make a final assay concentration of 2.5 mM. Compounds were diluted 1:3.16 for 10 points and 750 nL was added to a 384 well compound plate using ECHO along with 30 μL assay buffer. The fluorescent dye was then added to the assay plate along with assay buffer to a final volume of 40 μL. The cell plate was incubated for 50 min at 37° C. and 5% CO2 and placed into the FLIPR Tetra along with the compound plate. 10 μL of references and compounds were then transferred from the compound plate into the cell plate and the fluorescent signal was read.

Chain of 5-HT2B receptor (P41595 whole entry, looked up): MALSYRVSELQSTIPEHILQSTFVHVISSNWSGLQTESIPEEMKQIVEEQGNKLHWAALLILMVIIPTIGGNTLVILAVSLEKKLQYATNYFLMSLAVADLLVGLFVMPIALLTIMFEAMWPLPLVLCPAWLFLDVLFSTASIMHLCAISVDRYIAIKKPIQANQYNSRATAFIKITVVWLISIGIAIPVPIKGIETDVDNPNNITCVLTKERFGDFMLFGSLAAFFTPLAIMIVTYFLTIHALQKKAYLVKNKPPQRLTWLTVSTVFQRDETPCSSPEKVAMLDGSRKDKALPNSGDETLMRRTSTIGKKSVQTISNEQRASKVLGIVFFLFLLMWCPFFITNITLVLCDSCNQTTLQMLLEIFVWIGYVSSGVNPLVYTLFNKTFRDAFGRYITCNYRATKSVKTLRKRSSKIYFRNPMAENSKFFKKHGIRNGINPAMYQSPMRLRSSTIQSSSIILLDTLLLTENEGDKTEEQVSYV
Chain of 5-HT1B receptor (P28222 whole entry, looked up): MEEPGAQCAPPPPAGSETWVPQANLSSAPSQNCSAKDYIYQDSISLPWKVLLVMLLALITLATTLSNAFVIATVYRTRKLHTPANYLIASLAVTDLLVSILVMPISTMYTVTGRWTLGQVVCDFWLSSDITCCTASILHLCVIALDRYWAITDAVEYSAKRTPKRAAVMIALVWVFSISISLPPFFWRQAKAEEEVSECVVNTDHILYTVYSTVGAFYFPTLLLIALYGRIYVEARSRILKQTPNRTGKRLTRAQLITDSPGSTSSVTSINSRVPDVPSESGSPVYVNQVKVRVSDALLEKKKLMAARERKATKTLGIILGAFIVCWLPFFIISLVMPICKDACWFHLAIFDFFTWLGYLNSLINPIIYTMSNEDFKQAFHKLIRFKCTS
Chain of Alpha1A receptor (P35348 whole entry, looked up): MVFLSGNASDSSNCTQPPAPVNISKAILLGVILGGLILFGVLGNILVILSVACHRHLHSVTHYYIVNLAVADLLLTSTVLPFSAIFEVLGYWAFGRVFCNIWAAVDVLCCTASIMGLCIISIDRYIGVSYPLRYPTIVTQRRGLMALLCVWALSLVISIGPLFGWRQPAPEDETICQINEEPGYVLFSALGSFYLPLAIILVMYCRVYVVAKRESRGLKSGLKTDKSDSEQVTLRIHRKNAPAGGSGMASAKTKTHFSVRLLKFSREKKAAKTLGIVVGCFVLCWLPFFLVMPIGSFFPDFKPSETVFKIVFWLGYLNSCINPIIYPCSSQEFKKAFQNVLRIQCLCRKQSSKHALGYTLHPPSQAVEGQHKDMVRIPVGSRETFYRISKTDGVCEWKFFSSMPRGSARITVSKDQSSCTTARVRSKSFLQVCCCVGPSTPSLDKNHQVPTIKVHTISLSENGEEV

| SMILES | Time Immobile [1] [s] | 5-HT1A % Act @ Max Dose [2] [%] | half-life at 1 μM [3] [min] | 5-HT2B % Act @ Max Dose [4] [%] | 5-HT1B % Act @ Max Dose [5] [%] | 5-HT2A % Act @ Max Dose [6] [%] | half-life at 1 μM [7] [min] | half-life at 1 μM [8] [min] | Alpha 1A % Act @ Max Dose [9] [%] |
| --- | --- | --- | --- | --- | --- | --- | --- | --- | --- |
| CNCCCN1c2ccccc2CCc2ccccc21 [Desipramine, reference compound] | 60.93 | – | – | – | – | – | – | – | – |
| CCN(CC)C(=O)[C@@H]1C=C2c3cccc4[nH]cc(c34)C[C@H]2N(CCC(F)(F)F)C1 [Compound 12, (6aR,9R)-N,N-diethyl-7-(3,3,3-trifluoropropyl)-4,6,6a,7,8,9-hexahydroindolo[4,3-fg]quinoline-9-carboxamide] | – | 71.42 | 5.9 | 29.55 | 95.51 | 78.69 | 13.5 | 2.1 | 2.08 |
| CCN(CC)C(=O)[C@@H]1C=C2c3cccc4[nH]cc(c34)C[C@H]2N(CCc2cccc(OC)c2)C1 [Compound 20, (6aR,9R)-N,N-diethyl-7-(3-methoxyphenethyl)-4,6,6a,7,8,9-hexahydroindolo[4,3-fg]quinoline-9-carboxamide] | – | 3.85 | 1.2 | 3.60 | 34.59 | 77.19 | 2.1 | 0.9 | – |
| CCN(CC)C(=O)[C@@H]1C=C2c3cccc4[nH]cc(c34)C[C@H]2N(CC2CC2)C1 [Compound 13, (6aR,9R)-N,N-diethyl-7-(Cyclopropylmethyl)-4,6,6a,7,8,9-hexahydroindolo[4,3-fg]quinoline-9-carboxamide] | – | 83.08 | 27.7 | 91.75 | 90.43 | 92.60 | 21.1 | 3.7 | 80.79 |
| CCN(CC)C(=O)[C@@H]1C=C2c3cccc4[nH]cc(c34)C[C@H]2N(CCc2ccc(OC)cc2)C1 [Compound 21, (6aR,9R)-N,N-diethyl-7-(4-methoxyphenethyl)-4,6,6a,7,8,9-hexahydroindolo[4,3-fg]quinoline-9-carboxamide] | – | 8.2 | 4.3 | 1.73 | 79.13 | 51.23 | 3.8 | 1.9 | – |
| CCN(CC)C(=O)[C@@H]1C=C2c3cccc4[nH]cc(c34)C[C@H]2N(Cc2ccc(OC)cc2)C1 [Compound 19, (6aR,9R)-N,N-diethyl-7-(4-methoxybenzyl)-4,6,6a,7,8,9-hexahydroindolo[4,3-fg]quinoline-9-carboxamide] | – | −0.65 | 10 | 2.44 | 71.08 | 70.54 | 16.8 | 7.2 | – |
| CCN(CC)C(=O)[C@@H]1C=C2c3cccc4[nH]cc(c34)C[C@H]2N(Cc2ccccc2O)C1 [Compound 16, (6aR,9R)-N,N-diethyl-7-(2-hydroxybenzyl)-4,6,6a,7,8,9-hexahydroindolo[4,3-fg]quinoline-9-carboxamide] | – | 22.29 | 2.2 | 26.497 | 90.1 | 62.05 | 4.9 | 1.3 | – |
